Measured values taken from patent publication US20090068290A1, “BIFEPRUNOX DOSES FOR TREATING SCHIZOPHRENIA” (priority 2006, published 2009).

How the values were obtained:
Type in all cases: in vivo, human
[1] = tested on: adult subjects with schizophrenia; test: PANSS general psychopathology subscale score, Clinical Study One; details: for Change from Baseline in PANSS General Psychopathology Subscale Score, Mean (S.D.) / Change from Baseline in PANSS General Psychopathology Subscale Score, Median / Trt Effect (versus placebo), PANSS General Psychopathology Subscale Score: ITT population; for Trt Effect (versus placebo), PANSS General Psychopathology Subscale Score: ANCOVA
Procedure: There were five treatment groups in this study. […] Study medication was administered once daily. After Baseline measurements were performed, the titration phase was begun. Bifeprunox treated subjects were titrated up to 5 mg, 10 mg or 20 mg according to a standardized titration schedule (Day 1: 0.125 mg, Day 2: 0.25 mg, Day 3: 0.5 mg, Day 4: 1.0 mg, Day 5: 2.0 mg, Day 6: 5.0 mg, Day 7: 10.0 mg, Day 8: 20 mg). When the assigned dose was reached, subjects were maintained at that dose for the remainder of the six-week treatment period.
The change in the Positive and Negative Symptom Scale (PANSS) total score, from baseline to endpoint, was the primary outcome measure. Secondary efficacy measures included: PANSS positive, PANSS negative, PANSS general psychopathology (GPP) score, PANSS-derived Brief Psychiatric Rating Scale (BPRS) score, Clinical Global Impressions-Severity of Illness (CGI-S), CGI-Improvement (CGI-I) scores, and responder rates. Safety and tolerability evaluations included extrapyramidal symptoms (EPS), weight gain, lipid profile, and serum prolactin.

[2] = tested on: adult subjects with schizophrenia; test: PANSS total score, Clinical Study Two (6-week, risperidone-referenced); details: LOCF; for Change from Baseline in PANSS Total Score, Mean (SD) / Change from Baseline in PANSS Total Score, Median / PANSS Total Score, Trt Effect (difference between bifeprunox and placebo): ITT; for PANSS Total Score, Trt Effect (difference between bifeprunox and placebo): ANCOVA
Procedure: Treatment started with a single-blind placebo lead-in period of at least three days, followed by titration from 0.25 mg up to 30 mg/day or 40 mg/day of bifeprunox for bifeprunox-treated subjects.
Rating scale assessments were performed weekly, except for week 5, to measure the change from baseline to endpoint of the PANSS total score. Other assessments included: PANSS positive symptom subscale score, PANSS negative symptom subscale score, PANSS general pschopathology subscale score, BPRS total score, BPRS psychosis score, the CGI-S score, the CGI-I score, responder rates based on the PANSS total score, and the Calgary Depression Scale for Schizophrenia (CDSS).
Subjects who completed this study had the option to continue in the long-term. […] After completing a Single-Blind placebo lead-in period of at least three days, bifeprunox-treated subjects were titrated from 0.25 mg up to 30 mg/day or 40 mg/day according to a standardized titration scheme over an eight-day period. When the assigned dose was reached, subjects were maintained at that dose for the remainder of the six week treatment period. […] Rating scale assessments for efficacy and abnormal movement disorders were done weekly except for Week 5. Safety assessments were performed at Screening, during treatment and at the end of the study. Subject satisfaction with study medication was assessed at Week 6. Samples of blood were obtained at Weeks 2, 4, and 6 for determination of bifeprunox in plasma. Blood samples were also obtained at Screening/Baseline, Week 3, and Week 6 for clinical laboratory assessments.
Diagnosis and Main Criteria for Inclusion: Male or female subjects 18-75 years of age with schizophrenia (per DSM-IV-TR criteria). Subjects had to have a total score on the PANSS between 70 and 120; at least two of four PANSS items (conceptual disorganization, hallucinatory behavior, suspiciousness, unusual thought content) had to have a score ≧4; and the score on the CGI-S had to be at least 4.

[3] = tested on: adult subjects with schizophrenia; test: SAS, BAS and AIMS movement scales, Clinical Study Two
Procedure: Pharmacokinetic (PK) data of bifeprunox in schizophrenic subjects were also assessed and are presented in a separate report (combined with data from study S1543003).
The SAS is used to measure Parkinsonian-type symptoms in patients exposed to antipsychotics. The scale consists of 10 items, each rated on a 5-point scale ranging from 0 (complete absence of the condition) to 4 (presence of the condition in extreme form). The SAS total score is defined as the sum of all item scores, and the range is 0 to 40. A SAS total score of up to 3 is considered normal.
The BAS is used to rate observable, restless movements of drug-induced akathisia as well as the subjective awareness of restlessness and any distress associated with the akathisia. The scale consists of 3 items that is rated from 0 (no evidence of akathisia) to 3 (severe akathisia). The BAS total score is defined as the sum of the these three BAS item scores and ranges from is 0 to 9. In addition, a global clinical assessment of akathisia is rated from 0 (no evidence of akathisia) to 5 (severe akathisia).
The AIMS, designed to record the occurrence of dyskinetic movements, consists of 12 items. Items 1 to 7 measure specific involuntary movements on a scale from 0 (none) to 4 (severe). Items 8 to 10 measure global assessment of abnormal movement on a scale from 0 (no awareness) to 4 (aware, severe distress). Items 11 and 12 are questions regarding the dental condition of the patient, with yes/no answers. The total score is calculated by summing AIMS items 1 through 10 and ranges from 0 to 40; the non-global total score is calculated by summing items 1 through 7.

[4] = Risperidone 6 mg, Endpoint LOCF
[5] = Risperidone 6 mg, Week 6/Endpoint
[6] = Bifeprunox 10 mg, Endpoint LOCF
[7] = Bifeprunox 20 mg, Endpoint LOCF
[8] = Bifeprunox 30 mg, Week 6/Endpoint
[9] = Bifeprunox 40 mg, Week 6/Endpoint

## Cc1nc2n(c(=O)c1CCN1CCC(c3noc4cc(F)ccc34)CC1)CCCC2 [Risperidone, risperidone, reference compound]
[1]; [4]
  Change from Baseline in PANSS General Psychopathology Subscale Score, Mean (S.D.): −6.8 (7.8)
  Change from Baseline in PANSS General Psychopathology Subscale Score, Median: −5
[1]; Risperidone 6 mg, Week 1, LOCF
  Change from Baseline in PANSS General Psychopathology Subscale Score, Mean (S.D.): −3.4 (5.8)
  Change from Baseline in PANSS General Psychopathology Subscale Score, Median: −3
[1]; Risperidone 6 mg, Week 2, LOCF
  Change from Baseline in PANSS General Psychopathology Subscale Score, Mean (S.D.): −5.8 (7.1)
  Change from Baseline in PANSS General Psychopathology Subscale Score, Median: −6
[1]; Risperidone 6 mg, Week 3, LOCF
  Change from Baseline in PANSS General Psychopathology Subscale Score, Mean (S.D.): −6.9 (7.3)
  Change from Baseline in PANSS General Psychopathology Subscale Score, Median: −6
[1]; Risperidone 6 mg, Week 4, LOCF
  Change from Baseline in PANSS General Psychopathology Subscale Score, Mean (S.D.): −6.3 (7.7)
  Change from Baseline in PANSS General Psychopathology Subscale Score, Median: −5
[2]; Risperidone 6 mg, Week 1
  Change from Baseline in PANSS Total Score, Mean (SD): −8.7 (10.2)
  Change from Baseline in PANSS Total Score, Median: −9
[2]; Risperidone 6 mg, Week 2
  Change from Baseline in PANSS Total Score, Mean (SD): −14.8 (14.2)
  Change from Baseline in PANSS Total Score, Median: −15
[2]; Risperidone 6 mg, Week 3
  Change from Baseline in PANSS Total Score, Median: −18
[2]; Risperidone 6 mg, Week 4
  Change from Baseline in PANSS Total Score, Mean (SD): −19.2 (17.0)
  Change from Baseline in PANSS Total Score, Median: −20
[2]; [5]
  Change from Baseline in PANSS Total Score, Mean (SD): −19.7 (19.3)
  Change from Baseline in PANSS Total Score, Median: −21
[3]; Risperidone 6 mg
  subjects with abnormal SAS scores at Endpoint: 14%

## O=c1[nH]c2cccc(N3CCN(Cc4cccc(-c5ccccc5)c4)CC3)c2o1 [Bifeprunox, 7-[4-([1,1′-biphenyl]-3-ylmethyl)-1-piperazinyl]-2(3H)-benzoxazolone]
[1]; Bifeprunox 5 mg, Endpoint LOCF
  Change from Baseline in PANSS General Psychopathology Subscale Score, Mean (S.D.): −4.4 (9.4)
  Change from Baseline in PANSS General Psychopathology Subscale Score, Median: −5
  Trt Effect (versus placebo), PANSS General Psychopathology Subscale Score: −2.2
[1]; Bifeprunox 5 mg, Week 1, LOCF
  Change from Baseline in PANSS General Psychopathology Subscale Score, Mean (S.D.): −1.7 (7.6)
  Change from Baseline in PANSS General Psychopathology Subscale Score, Median: −2
[1]; Bifeprunox 5 mg, Week 2, LOCF
  Change from Baseline in PANSS General Psychopathology Subscale Score, Mean (S.D.): −2.8 (8.1)
  Change from Baseline in PANSS General Psychopathology Subscale Score, Median: −2
[1]; Bifeprunox 5 mg, Week 3, LOCF
  Change from Baseline in PANSS General Psychopathology Subscale Score, Mean (S.D.): −3.3 (8.8)
  Change from Baseline in PANSS General Psychopathology Subscale Score, Median: −3
[1]; Bifeprunox 5 mg, Week 4, LOCF
  Change from Baseline in PANSS General Psychopathology Subscale Score, Mean (S.D.): −3.7 (9.1)
  Change from Baseline in PANSS General Psychopathology Subscale Score, Median: −4
[1]; [6]
  Change from Baseline in PANSS General Psychopathology Subscale Score, Mean (S.D.): −2.0 (9.2)
  Change from Baseline in PANSS General Psychopathology Subscale Score, Median: −1
  Trt Effect (versus placebo), PANSS General Psychopathology Subscale Score: 0.4
[1]; Bifeprunox 10 mg, Week 1, LOCF
  Change from Baseline in PANSS General Psychopathology Subscale Score, Mean (S.D.): −0.9 (6.2)
  Change from Baseline in PANSS General Psychopathology Subscale Score, Median: 0
[1]; Bifeprunox 10 mg, Week 2, LOCF
  Change from Baseline in PANSS General Psychopathology Subscale Score, Mean (S.D.): −1.5 (7.7)
  Change from Baseline in PANSS General Psychopathology Subscale Score, Median: −2
[1]; Bifeprunox 10 mg, Week 3, LOCF
  Change from Baseline in PANSS General Psychopathology Subscale Score, Mean (S.D.): −1.7 (9.0)
  Change from Baseline in PANSS General Psychopathology Subscale Score, Median: −1
[1]; Bifeprunox 10 mg, Week 4, LOCF
  Change from Baseline in PANSS General Psychopathology Subscale Score, Mean (S.D.): −1.4 (8.8)
  Change from Baseline in PANSS General Psychopathology Subscale Score, Median: −1
[1]; [7]
  Change from Baseline in PANSS General Psychopathology Subscale Score, Mean (S.D.): −5.1 (8.8)
  Change from Baseline in PANSS General Psychopathology Subscale Score, Median: −5
  Trt Effect (versus placebo), PANSS General Psychopathology Subscale Score: −2.8
[1]; Bifeprunox 20 mg, Week 1, LOCF
  Change from Baseline in PANSS General Psychopathology Subscale Score, Mean (S.D.): −3.0 (6.4)
  Change from Baseline in PANSS General Psychopathology Subscale Score, Median: −2
[1]; Bifeprunox 20 mg, Week 2, LOCF
  Change from Baseline in PANSS General Psychopathology Subscale Score, Mean (S.D.): −4.4 (7.5)
  Change from Baseline in PANSS General Psychopathology Subscale Score, Median: −5
[1]; Bifeprunox 20 mg, Week 3, LOCF
  Change from Baseline in PANSS General Psychopathology Subscale Score, Mean (S.D.): −5.2 (7.9)
  Change from Baseline in PANSS General Psychopathology Subscale Score, Median: −6
[1]; Bifeprunox 20 mg, Week 4, LOCF
  Change from Baseline in PANSS General Psychopathology Subscale Score, Mean (S.D.): −5.2 (8.4)
  Change from Baseline in PANSS General Psychopathology Subscale Score, Median: −6
[1]; bifeprunox 5 mg, LOCF
  PANSS general psychopathology score, estimate of the treatment effect: −2.2
[1]; bifeprunox 10 mg, LOCF
  PANSS general psychopathology score, estimate of the treatment effect: 0.4
[1]; bifeprunox 20 mg, LOCF
  PANSS general psychopathology score, estimate of the treatment effect: −2.8
[2]; Bifeprunox 30 mg, Week 1
  Change from Baseline in PANSS Total Score, Mean (SD): −6.6 (11.8)
  Change from Baseline in PANSS Total Score, Median: −5
[2]; Bifeprunox 30 mg, Week 2
  Change from Baseline in PANSS Total Score, Mean (SD): −11.6 (15.5)
  Change from Baseline in PANSS Total Score, Median: −10
[2]; Bifeprunox 30 mg, Week 3
  Change from Baseline in PANSS Total Score, Mean (SD): −13.3 (17.8)
  Change from Baseline in PANSS Total Score, Median: −10
[2]; Bifeprunox 30 mg, Week 4
  Change from Baseline in PANSS Total Score, Mean (SD): −13.6 (18.9)
  Change from Baseline in PANSS Total Score, Median: −10
[2]; [8]
  Change from Baseline in PANSS Total Score, Mean (SD): −13.5 (20.1)
  Change from Baseline in PANSS Total Score, Median: −10
  PANSS Total Score, Trt Effect (difference between bifeprunox and placebo): −5.9
[2]; Bifeprunox 40 mg, Week 1
  Change from Baseline in PANSS Total Score, Mean (SD): −6.7 (11.5)
  Change from Baseline in PANSS Total Score, Median: −6
[2]; Bifeprunox 40 mg, Week 2
  Change from Baseline in PANSS Total Score, Mean (SD): −8.9 (15.6)
  Change from Baseline in PANSS Total Score, Median: −8
[2]; Bifeprunox 40 mg, Week 3
  Change from Baseline in PANSS Total Score, Mean (SD): −10.0 (17.8)
  Change from Baseline in PANSS Total Score, Median: −10
[2]; Bifeprunox 40 mg, Week 4
  Change from Baseline in PANSS Total Score, Mean (SD): −9.2 (18.8)
  Change from Baseline in PANSS Total Score, Median: −7
[2]; [9]
  Change from Baseline in PANSS Total Score, Mean (SD): −10.3 (20.5)
  Change from Baseline in PANSS Total Score, Median: −7
  PANSS Total Score, Trt Effect (difference between bifeprunox and placebo): −3.2
[2]; bifeprunox 30 mg (b57 prints 20 mg)
  difference from placebo, change from Baseline to Endpoint in PANSS total score: statistically significant difference from placebo
[2]; bifeprunox 30 mg
  greater improvement from Baseline to Endpoint in PANSS total score compared with placebo: 5.9 point
[2]; bifeprunox 30 mg, week 2
  PANSS Total Score, treatment effect versus placebo: −5.6
[2]; bifeprunox 30 mg, week 4
  PANSS Total Score, treatment effect versus placebo: −6.3
[2]; bifeprunox 40 mg
  difference from placebo, change from Baseline to Endpoint in PANSS total score: not significantly different from the placebo group
[3]; Bifeprunox 30 mg
  SAS shifts from normal at Baseline to abnormal at Endpoint: < 1%
[3]; Bifeprunox 40 mg
  SAS shifts from normal at Baseline to abnormal at Endpoint: 4%
  subjects with abnormal SAS scores at Endpoint: 7%
